The values that follow come from publication PMC9229263, “Pyrazolo[4,3-e]tetrazolo[1,5-b][1,2,4]triazine Sulfonamides as Novel Potential Anticancer Agents: Cytotoxic and Genotoxic Activities In Vitro” (Molecules, 2022).

A word on the IC50: it is the midpoint of a concentration-inhibition curve. Broadly, the melting point is the temperature, or range, at which the solid turns liquid.

Where two headings read alike, the source gives them in different places.

Data set [1] deals with BxPC-3. Set-up: method as in PMID 20021699, PMID 24172061. The following applies: cited from earlier work.
Data set [2] deals with HCT 116. The following applies: cited from earlier work.
A further data set has as its system HT-29 and DLD-1. The conditions noted are these: HT-29 and DLD-1, range; cited from earlier work.
In data set [3] the test system is HeLa. Briefly: MTT assay, HeLa. In kind it is cell-based. The following applies: Homo sapiens, 72 h, 95% confidence intervals in parentheses. An excerpt: (§1) In order to characterize the effect of tested compounds on cell viability, the MTT test was used. MTT microplate assay enables evaluation of cell viability via measuring cell metabolic activity represented as an ability to incorporate and reduce yellow tetrazolium salt to the violet-blue formazan compounds via the activity of mitochondrial succinate dehydrogenase enzyme. The number of metabolically active cells positively correlates with the amount of reduced tetrazolium salt. The absorbance of formazan solution obtained after solubilizing formazan crystals in an organic solvent, e.g., DMSO, can be measured spectrophotometrically at 570 nm.
(§2) The suspension of 8–10 × 10^3 (adherent cells) and 8 × 10^4 (PBMCs) cells in 200 µL and 100 µL medium, respectively, was transferred to each well of 96-well microplate. Plates were incubated for 24 h in controlled conditions (5% CO2; 37 °C) to ensure cell growth. Subsequently, the medium was replaced, and the cells were exposed to tested compounds in a wide range of concentrations (0.1–6 µM). Before investigated compounds were diluted in a culture medium, they had been diluted in DMSO in the final concentration of <0.5% v/v, which were not toxic to the cells. The experimental design included blanks (wells without cells) as well as non-treated control cells. Following the 72 h incubation period, a volume of 20 µL of fresh tetrazolium salt solution (5 mg/mL in PBS) was added per well. In the case of adherent cancer cells, after 3 h of incubation (conditions as previously), the solutions were replaced by 100 µL of DMSO to dissolve formazan complexes. In contrast, the solutions in plates containing PBMCs were not removed and a 100 µL mixture of 50% DMF and 20% SDS was added to each well for the next 24 h. Absorbance was measured via spectrophotometer (microplate reader Power Wave XS BioTek Instruments, Inc., Winooski, VT, USA) at 570 nm. […]
In general terms: Formazan colour is commonly taken as a measure of viable cells.

The test system of data set [4] is BxPC-3. Briefly: MTT assay, BxPC-3. The conditions noted are these: Homo sapiens; BxPC-3, MTT, 72 h; 95% confidence intervals in parentheses. It is filed as cell-based.
Excerpt: as §1, §2

Data set [5] relates to PC-3. Briefly: MTT assay, PC-3. It is filed as cell-based. The conditions noted are these: Homo sapiens; PC-3, MTT, 72 h; 95% confidence intervals in parentheses.
Excerpt: as §1, §2

In a further data set the test system is PBMCs. Briefly: MTT assay, PBMCs (normal). In kind it is cell-based. The following applies: Homo sapiens, PBMC, PBMCs normal cells, 72 h, 95% confidence intervals in parentheses.
Excerpt: Human PBMCs were isolated from the leucocyte buffy coat obtained from the blood of healthy and nonsmoking volunteers (aged 18–65). Leukocyte buffy coats were collected from Blood Bank in Lodz, Poland. The use of the leukocyte buffy coat in the investigation of the effect of novel tricyclic pyrazolo[4,3-e][1,2,4]triazine derivatives on human PBMCs was approved by the Bioethics Committee for Scientific Investigation, University of Lodz (agreement no. 8/KBBN-UŁ/I//2019). Isolation of PBMCs was performed by density gradient of Lymphosep (25 min, 1400 rpm, RT). PBMCs were cultured in RPMI-1640 medium, supplemented with 1% (v/v) penicillin–streptomycin solution, 1.5% PHA and 10% (v/v) FBS.
as §1
(§3) The suspension of 8–10 × 10^3 (adherent cells) and 8 × 10^4 (PBMCs) cells in 200 µL and 100 µL medium, respectively, was transferred to each well of 96-well microplate. Plates were incubated for 24 h in controlled conditions (5% CO2; 37 °C) to ensure cell growth. Subsequently, the medium was replaced, and the cells were exposed to tested compounds in a wide range of concentrations (0.1–6 µM). Before investigated compounds were diluted in a culture medium, they had been diluted in DMSO in the final concentration of <0.5% v/v, which were not toxic to the cells. […] Absorbance was measured via spectrophotometer (microplate reader Power Wave XS BioTek Instruments, Inc., Winooski, VT, USA) at 570 nm. […]

For a further data set, the system named is Hs27. Briefly: MTT assay, Hs27 fibroblasts (normal). The following applies: Homo sapiens, 72 h, 95% confidence intervals in parentheses. In kind it is cell-based.
Excerpt: as §1, §2

Data set [6] relates to HeLa, HCT 116, PC-3, BxPC-3, Hs27, PBMCs. Briefly: MTT assay, summary over all tested cells. It is filed as cell-based. The following applies: Homo sapiens; HCT 116, HeLa, PC-3 and BxPC-3, MTT; read-out: IC50 range in cancer cell lines.
Excerpt: as §1, §3

Data set [7] has as its system HT-29 and DLD-1 cancer cells. Set-up: method as in PMID 26089833. The following applies: mice challenged with HT-29 and DLD-1 cancer cells, two weeks of treatment; cited from earlier work.
For data set [8], the system named is PC-3. Briefly: Comet assay, alkaline version (pH > 13), PC-3. The following applies: PC-3, 24 h, range over 0.5, 1 and 2 × IC50. It is filed as cell-based, human. As for the experimental part:
(§4) The alkaline version (pH > 13), as well as the neutral version (pH 9.0) of the comet assay, was performed on cancer cell lines according to the procedures described by Singh et al. with modifications. 12-well plates were seeded at a density of 1.2–1.5 × 10^5 cells per well. […] In addition, negative and positive controls (cells treated only with DMSO at <0.5% and with bleomycin at 20 µM, respectively) were included.
(§5) Following a 24 h incubation (5% CO2; 37 °C), the cells were trypsinized and transferred to Eppendorf tubes and centrifuged (10 min, 1400 rpm, 4 °C). The obtained pellet was resuspended in 100 µL of fresh PBS, mixed with 0.75% LMP agarose dissolved in PBS, and embedded onto microscope slides, previously precoated with 0.5% NMP agarose. The Trypan Blue dye exclusion test was used to determine the number of viable cells present in a cell suspension. […] The slides after agarose solidification were placed in a fresh, cold lysis buffer (pH 10, 1% Triton X-100, 2.5 M NaCl, 100 mM EDTA, 10 mM Tris) for 1 h (4 °C, in dark), which subsequently was replaced by electrophoretic solution (1 mM EDTA, 300 mM NaOH, pH > 13) for another 40 min. Afterward, electrophoresis was performed (25 min, 0.73 V/cm, 300 mA, 4 °C, in dark). Subsequently, the slides were neutralized with 0.4 M Tris, pH 7.5 (20 min, 4 °C, in dark) and washed 3× in distilled water. Eventually, slides were drained, stained with DAPI (1 μg/mL) for at least 1 h (4 °C), and analyzed with fluorescence microscope (Olympus, Tokyo, Japan).
(§6) A total number of 50 randomly selected images were analyzed in the commercially available software CaspLab. Two parallel experiments with aliquots of the same sample of cells were performed for a total of 100 cells. From the available parameters, the percentage of DNA in comet tail was selected as the most appropriate as being negatively associated with the level of DNA cross-links, as well as positively correlated with alkali-labile sites and the amount of DNA single-strand breaks (SSBs) and double-strand breaks (DSBs) (alkaline version of the comet assay). […]

Another data set concerns tumor development. Set-up: method as in PMID 31371419. The conditions noted are these: zebrafish embryo xenograft model; cited from earlier work.
Data set [9] concerns HCT 116. Briefly: MTT assay, HCT 116. It is filed as cell-based. The following applies: Homo sapiens; HCT 116, MTT, 72 h; 95% confidence intervals in parentheses.
Excerpt: as §1, §2

The test system of data set [10] is HCT 116. Briefly: Comet assay, alkaline version (pH > 13), HCT 116. In kind it is cell-based, human. The conditions noted are these: HCT 116, 24 h; for Alkaline Version, median percentage of DNA in comet tail: compound at 2 × IC50, interquartile range in parentheses. As for the experimental part: as §4, §5, §6
The subject of data set [11] is HCT 116. Briefly: Immunocytochemical detection of γ-H2AX. In kind it is cell-based, human. The following applies: HCT 116, 24 h, highest concentration used (2 × IC50). As for the experimental part:
Immunocytochemical detection of the phosphorylated form of the histone protein component H2AX (γ-H2AX) is a well-known approach to estimate DNA DSB levels in both in vitro [47, 53, 66] and in vivo [67, 68] studies. HCT 116 cells were grown on coverslips in 12-well plates at a density of 1.2 × 10^5 per well for 24 h (5% CO2; 37 °C). Subsequently, the cells were exposed to investigated compounds in two different concentrations (IC50 and 2 × IC50 values with respect to MTT results), by replacing the medium with an appropriate compound concentration. Negative control (cells treated only with DMSO at <0.5%) was also included.
The cells were fixed with 4% paraformaldehyde (10 min), washed twice with PBS, and permeabilized with 0.5% (v/v) Triton X-100/PBS solution (10 min). Afterward, the cells were incubated with a blocking solution containing 1.5% goat serum, and 0.1% Triton in PBS for 10 min and incubated with the primary antibody, anti-gamma-H2AX (phospho-Ser139) (Abcam, Cambridge, UK; 1:100) for 1 h. […]
The slides were examined using a fluorescence microscope (Olympus) at 40× magnification. […] A total number of 150 randomly selected cells from digital images per sample were measured. The data were exported and analyzed in GraphPad Prism 8.0 software system (GraphPad Prism Software Inc., San Diego, CA, USA).

Data set [12] relates to PC-3. The conditions noted are these: cited from earlier work.
In data set [13] the test system is HeLa. Set-up: method as in doi:10.26650/IstanbulJPharm.2020.0039, PMID 34200051. The conditions noted are these: cited from earlier work.

As to `O=c1[nH]cc(F)c(=O)[nH]1` [5-fluorouracil], the IC50 with BxPC-3 [1] was 96100 nM; in the data set with HCT 116 [2], 3200 nM.
For `Cc1nn(-c2ccc(S(=O)(=O)NC(CO)CC(C)C)cc2)c2nn3nnnc3nc12` (centres unmarked) [MM124, reference compound], in the data set on HT-29 and DLD-1, the IC50 is 160 to 1540 nM.
On to `COC(=O)C1CC(O)CN1S(=O)(=O)c1ccc(-n2nc(C)c3nc4nnnn4nc32)cc1` (centres unmarked) [MM129], for which the IC50 in the data set on HeLa [3] was 900 nM; in the data set on BxPC-3 [4], 260 nM; in the data set with PC-3 [5] it was 360 nM; in the data set on PBMCs, 1110 nM; in the data set with Hs27, 1150 nM; with HT-29 and DLD-1 it was 3100 to 3900 nM. Also, the values for the IC50 (in [6]; with HCT 116 [9]) were 130 to 900 nM and 600 nM, respectively. For the same molecule, in [7], the “tumor mass and volume” value is “significant reduction in tumor mass and volume”. Besides, in the data set on PC-3 [8], the “% of DNA in comet tail, alkaline comet assay” value (“% of DNA in comet tail” below) is 7.4–21.8%. The tumor development entry in the data set on tumor development is recorded as “inhibition of tumor development”.
`Cc1nn(-c2ccc(S(=O)(=O)N[C@@H](C)CO)cc2)c2nn3nnnc3nc12` [MM130] had a melting point of 197 to 202 °C. In addition, the IC50 with HeLa [3] came out at 590 nM. Also, the IC50 in the data set on BxPC-3 [4] was determined as 170 nM. In addition, the IC50 in the data set on PC-3 [5] was 220 nM. In the data set on PBMCs, the IC50 was found to be 770 nM. Besides, the IC50 in the data set on Hs27 came to 810 nM. Moreover, the “Alkaline Version, median percentage of DNA in comet tail” value with HCT 116 [10] is on record as 25.6%. Further, in the data set with PC-3 [8], the “% of DNA in comet tail” value is 7.4–21.8%. For the same molecule, the “median of the number of γ-H2AX foci per nucleus” value in the data set on HCT 116 [11] stood at 12 foci per nucleus. Further, the IC50 in the data set with HCT 116 [9] was 440 nM.
Take `Cc1nn(-c2ccc(S(=O)(=O)N[C@H](C)CO)cc2)c2nn3nnnc3nc12` [MM131]: the IC50 was 410 nM in the data set with HeLa [3]; 130 nM in the data set on BxPC-3 [4]; 170 nM with PC-3 [5]; 620 nM in the data set with PBMCs; 620 nM in the data set with Hs27; 3100 to 3900 nM in the data set on HT-29 and DLD-1. The results for the IC50 (in [6]; with HCT 116 [9]) were 130 to 900 nM and 390 nM, respectively. Besides, the “Alkaline Version, median percentage of DNA in comet tail” value in the data set with HCT 116 [10] was 38.8%. Moreover, the “% of DNA in comet tail” value in the data set with HCT 116 [10] (range over 0.5, 1 and 2 × IC50) is 8–38.8%; in the data set on PC-3 [8], 19.5–40.3%. In the data set on HCT 116 [11], the “median of the number of γ-H2AX foci per nucleus” value is recorded as 15 foci per nucleus.
In the case of `Cc1nn(-c2ccc(S(=O)(=O)N3CCN(C)CC3)cc2)c2nn3nnnc3nc12` [MM137, reference compound], in the data set on HT-29 and DLD-1, the IC50 is 160 to 1540 nM.
As to `N.N.[Cl][Pt][Cl]` [cisplatin], the IC50 in the data set on PC-3 [12] was 9000 nM; with HeLa [13] it was 12300 nM; in the data set with HCT 116 [2], 9000 nM.
Take `CCc1c2c(nc3ccc(OC(=O)N4CCC(N5CCCCC5)CC4)cc13)-c1cc3c(c(=O)n1C2)COC(=O)[C@]3(O)CC` [irinotecan]: the IC50 is 2100 nM in the data set on PC-3 [12] and 2600 nM with HCT 116 [2].
On to `O=C1[O][Pt]2([NH][C@@H]3CCCC[C@H]3[NH]2)[O]C1=O` [oxaliplatin], for which the IC50 was 100000 nM in the data set on PC-3 [12] and 72000 nM with HCT 116 [2].
